Results reported in US12258574B2, “Methods and compositions for transducing lymphocytes and regulating the activity thereof” (Exuma Biotech Corp., priority 2016, dated 2025).

B1: MRB-CAR T1A: anti-Target 1 microenvironment restricted CAR; VH SEQ ID NO:281, Linker 1, VL SEQ ID NO:282; CD28 stalk/TM, ICΔ, CD3Z (protein)
chain: EVQLVQSGAEVKKPGATVKISCKVSGYSFWGATMNWIRQPPGKGLEWIGLIKPSNGGTSYNQKFKGRVTISADKSISTAYLQWSSLKASDTAMYYCAHGHYESYEAMDYWGQGTLVTVSSGGGGSGGGGSGGGGSDIQMTQSPSSLSASVGDRVTITCKASQDVVSAVAWYQQKPGQAPRLLIYWQDTRHTGVPSRFSGSGSGTEFTLTISSLQPDDFATYYCQEHFSPPLTFGQGTKVEIKFWVLVVVGGVLACYSLLVTVAFIIFWVRSKRSRLLHSDYMNMTPRRPGPTRKHYQAYAAARDFAAYRSRVKFSRSADAPAYQQGQNQLYNELNLGRREEYDVLDKRRGRDPEMGGKPRRKNPQEGLYNELQKDKMAEAYSEIGMKGERRRGKGHDGLYQGLSTATKDTYDALHMQALPPR
notes: anti-Target 1 microenvironment restricted CAR; CD28 stalk/TM, ICΔ, CD3Z

Tests used:
CHO-Target 1 cells = assay: pH shift cytotoxicity assay / HCl switch RTCA killing assay (xCELLigence); format: cell-based; settings: added about 3 hours after effector cells, E/T 1:1
Method: The cytotoxic activity of transduced T cells before and after pH change by addition of NaHCO3 or NaOH was measured using the xCELLigence System. Briefly, one day before the experiment, target cells (CHO cells stably transfected with a construct to express Target 1 on the cell surface (CHO-Target 1 cells)), were seeded into a 96-well E-plate (ACEA; San Diego, CA) at 10,000 cells/well with X-VIVO 15 media containing 40 mM HEPES and 40 mM PIPES, pH 6.7. Cryopreserved effector cells previously transduced with either lentiviral particles containing the nucleic acid encoding T1B or C1 (T1BVP and C1VP, respectively) produced as discussed above, were thawed and cultured for two days in X-VIVO 15 media containing 100 IU/mL of IL-2 (R&D Systems, Minneapolis, MN). On the day of the experiment, cells transduced with T1BVP or C1VP were washed and resuspended in X-VIVO 15 media containing 40 mM HEPES and 40 mM PIPES, pH 6.7 and then added into the experimental wells at effector cell/target cell ratios (E/T) of 1:1.
Impedance readings measured on the xCELLigence System (ACEA) were taken every 5 minutes and reported as the Cell Index (CI) to quantitate cell confluency as a measure of cell proliferation/cell lysis. Approximately 3 hours after effector cell addition, 8 μl of 7.5% NaHCO3 or 14 μl of 0.5 M NaOH was added into the wells with X-VIVO 15 media containing 40 mM HEPES and 40 mM PIPES, pH 6.7 to increase the pH from 6.7 to 7.4. Impedance readings were continued for approximately 20 hours after effector cell addition. Percentage of specific cytolysis was calculated as follows ((CI Target+C1VP transduced effector T cells)−(CI Target+T1BVP transduced effector T cells))/(CI Target+C1VP transduced effector T cells)×100.
The cytotoxic activity of transduced T cells before and after pH change by addition of HCl was measured using the xCELLigence System. Briefly, one day before the experiment, CHO-Target 1 cells were seeded into a 96 well E-plate at 10,000 cells/well with X-VIVO 15 media containing 40 mM HEPES and 40 mM PIPES, pH 7.4. Cryopreserved effector cells previously transduced with either C1VP or T1BVP, were thawed and cultured for two days in X-VIVO 15 media containing 100 IU/mL of IL-2. On the day of the experiment, cells transduced with T1BVP or C1VP were washed and resuspended in X-VIVO 15 media containing 40 mM HEPES and 40 mM PIPES, pH 7.4 and then added into experimental wells at effector cell/target cell ratios (E/T) of 1:1.
Impedance readings were taken every 5 minutes and reported as the Cell Index (CI). […] Impedance readings were continued for approximately 20 hours after effector cell addition. Percentage of specific cytolysis was calculated as follows ((CI Target+C1VP transduced effector T cells)−(CI Target+T1BVP transduced effector T cells))/(CI Target C1VP)×100.

[1] = system: cathepsin B, L, S, K, V, and D; settings: 1 ml/mouse 1 M ip, 30 min post administration, n=3, vs PBS
Description: Fortunately, the relative protease activity of cathepsin is higher at lower pH and lower at higher pH. Therefore, the measurement of intratumoral cathepsin activity can serve as a surrogate measure of the pH of the tumor microenvironment. To measure in vivo activities of cathepsin B, L, S, K, V, and D, the near-infrared ProSense 750 FAST probe (PerkinElmer) was used.
Mice were handled in accordance with Institutional Animal Care and Use Committee approved protocols. Subcutaneous (sc) Chinese Hamster Ovary (CHO) tumor xenografts were established in the hind flank of 12-14 week old female B-NSG mice (NOD-PrkdcscidIl2rgtm1/Bcgen (Beijing Biocytogen Co. Ltd.). Briefly, cultured CHO cells (ATCC, Manassas, VA) were washed in DPBS (ThermoFisher), counted, resuspended in cold DPBS and mixed with an appropriate volume of Matrigel ECM (Corning; final concentration 5 mg/mL) at a concentration of 1.5×10^6 cells/200 μl on ice.
Animals were prepared for injection using standard approved anesthesia with hair removal (Nair) prior to injection. 200 μl of the cell suspension in ECM was injected sc into the rear flanks of the mice. Once tumors were palpable, the tumors were measured using calipers 2 times/week. Tumor volume was calculated using the following equation: (longest diameter*shortest diameter^2)/2. […]

[2] = 1.5 hours post ip administration, n=3, relative to PBS-treated mice
Description: Phenol red is a pH indicator which undergoes a pH-dependent color transition. […] A solution of phenol red has a yellow color at a pH of 6.4 or below, an orange color around pH 7.0, a red color around pH 7.4, and a purple color above pH 7.8.
The CHO xenograft tumor was excised from each mouse. The xenograft tumors were split into two halves with a scalpel and placed on a petri dish. The tumor tissue halves were then cut/sliced repeatedly using the scalpel. Water or 0.05% phenol red solution (50 mg phenol red/100 ml water) was added dropwise to each tumor half, respectively. The color was noted and images were taken of the treated tumor xenografts and of the phenol red solution remaining on the petri plate once the tumor xenograft samples were removed.

[3] = 50-milliliter bolus; cited from earlier work
CHO-Target 1 = assay: xCELLigence cytotoxicity of MRB-CAR T cells at pH 6.7 vs pH 7.4, CHO-Target 1; format: cell-based; settings: E/T 3:1, 1:1, 0.3:1; about 40 hours
Method: The cytotoxic activity of the candidate MRB-CARs against target cells expressing either Target 1 or Target 2 (CHO-Target 1 and CHO-Target 2, respectively) was analyzed at a pH of 7.4 (normal tissue) or a pH of 6.7 (reduced pH of a tumor microenvironment) by xCELLigence System (ACEA). Briefly, target cells expressing Target 1 or Target 2 were seeded to a 96-well E-plate at 20,000 cells/well with tumor conditional or normal medium one day before the experiment. Effector cells were rested for two days in human T cell medium containing 100 IU/mL of IL-2 and added into experimental wells containing Target cells at effector cell/target cell ratios (E/T) of 3:1, 1:1, and 0.3:1.
Impedance readings were taken every 5 minutes for approximately 40 hours after effector cell addition and impedance was reported as the Cell Index (CI). Percentage of specific cytolysis was calculated as follows ((CI Target+Control virus transduced effector T cells)−(CI Target+effector T cells transduced with CARs directed to Target 1 or Target 2))/(CI Target+Control virus transduced effector T cells)×100.

Row | Molecule | effect on cytotoxic activity of MRB-CAR T cells of raising media pH from 6.7 to 7.4 (CHO-Target 1 cells) | intratumoral cathepsin activity (RFU), surrogate of tumor microenvironment pH [1] | color of phenol red indicator on excised tumor tissue [2] | rise of serum pH [3] | cytotoxic activity on target cells at pH 6.7 versus pH 7.4 (CHO-Target 1)
1 | O=C([O-])O.[Na+] [sodium bicarbonate] | inhibited the cytotoxic activity | decreased cathepsin activity | from yellow/orange to red | approximately 0.1 pH unit | 
2 | B1 |  |  |  |  | more effective at lysing target cells at a pH of 6.7 than at a pH of 7.4
